In experiment [1] the target is T1, yThg1 (yeast Thg1, tRNA^His guanylyltransferase) (Saccharomyces cerevisiae, UniProt P53215).
T1 sequence (P53215 1-237): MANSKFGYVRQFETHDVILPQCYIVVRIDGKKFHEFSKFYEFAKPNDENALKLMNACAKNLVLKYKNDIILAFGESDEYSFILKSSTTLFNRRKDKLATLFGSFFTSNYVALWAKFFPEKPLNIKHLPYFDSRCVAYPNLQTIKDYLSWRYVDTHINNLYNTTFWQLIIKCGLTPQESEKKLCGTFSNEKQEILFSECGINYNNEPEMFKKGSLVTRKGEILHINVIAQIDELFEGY
The experiment is described as follows: single-turnover adenylylation kinetics, […]'-32P tRNA. The class given is biochemical. As to conditions: read-out: KDapp,NTP, adenylylation step, 15 μM enzyme, 10 mM MgCl2, pH 6.0, room temperature.

In experiment [2] the target is T1, yThg1 (yeast Thg1, tRNA^His guanylyltransferase). In words: single-turnover nucleotidyl transfer kinetics, gamma-32P ppp-tRNA. The class given is biochemical. The following applies: read-out: KDapp,NTP, nucleotidyl transfer step, 15 μM enzyme, 10 mM MgCl2, pH 7.5, room temperature.

For the compound `Nc1ncnc2c1ncn2[C@@H]1O[C@H](COP(=O)(O)OP(=O)(O)OP(=O)(O)O)[C@@H](O)[C@H]1O` [ATP], the Kd in experiment [1] came out at 360 ± 80 µM.

For `Nc1nc2c(ncn2[C@@H]2O[C@H](COP(=O)(O)OP(=O)(O)OP(=O)(O)O)[C@@H](O)[C@H]2O)c(=O)[nH]1` [GTP], the Kd in experiment [2] came out at 21 ± 4 µM.

Values taken from paper PMC3254824 (Biochemistry, 2011).
